Experiments:
[1] = Ratio of Kapp for synthetic poly(dA-dT)]2 oligonucleotide to Kapp for synthetic poly(dG-dC)]2 oligonucleotide
HT-29 = experiment: Cytotoxicity against human HT29 cells after 72 hrs; format: functional; settings: HT-29, 72 h

Compound | Ratio [1] | GI50 (HT-29) | LC50 (concentration killing 50% of cells) (HT-29) | TGI (HT-29)
CCN(CC)CCCNc1ccc(NCCCN(C)CCCNc2ccc(NCCCN(CC)CC)c3c2C(=O)c2cnccc2C3=O)c2c1C(=O)c1ccncc1C2=O | 1.7 | 83 µM | > 100 µM | > 100 µM
CN(C)CCn1nc2c3c(c(NCCCN(C)CCCNc4ccc5c6c(nn5CCN(C)C)-c5ccncc5C(=O)c46)ccc31)C(=O)c1cnccc1-2 |  | 0.7 µM | > 100 µM | > 100 µM
CCN(CC)CCNc1ccc(NCCCN(C)CCCNc2ccc(NCCN(CC)CC)c3c2C(=O)c2cnccc2C3=O)c2c1C(=O)c1ccncc1C2=O | 3.5 | 4.5 µM | > 100 µM | 32 µM
